What was measured:
HUVECs = assay: 3D SUP hydrogel bead assay coculture (angiogenesis in vitro assay); assay type: cell-based, human; conditions: for Endothelial network formation in bulky hydrogel: after 20 days of coculture, HUVEC-laden microgels, HDFn-loaded bulky hydrogel
Description: This assay was done by iterating the 4 combinations between SUP bulk-hydrogels ((3) and SUP microgels (p) (i.e., β-IVFK (SEQ ID NO. 1)+μ-IVFK (SEQ ID NO. 1); β-IVFK (SEQ ID NO. 1)+μ-IVZK (SEQ ID NO. 2); βIVZK (SEQ ID NO. 2)+μ-IVFK (SEQ ID NO. 1); β-IVZK (SEQ ID NO. 2)+μ-IVZK (SEQ ID NO. 2)). The next procedure is the same for all combinations using as an example β-IVFK (SEQ ID NO. 1)+μ-IVFK (SEQ ID NO. 1). HUVECs were cultured on μ-IVFK (SEQ ID NO. 1) for 24 h as described previously. By the bead assay seeding day, IVFK (SEQ ID NO. 1) powder for β-hydrogel was dissolved at 8 mg/mL in sterile water 1 h before seeding. Meanwhile, HDFn cells were harvested and resuspended in 2 xPBS at 1.2×10^6 HDFn cells/mL, and simultaneously, HUVEC laden μ-IVFK (SEQ ID NO. 1) were spun down in a tube at 50 g for 5 min. The supernatant was discarded, and 200 μL of HUVEC-ladenμ-IVFK (SEQ ID NO. 1) was mixed with 200 μL of HDFn cells in 2×PBS. Immediately, 100 μL of IVFK (SEQ ID NO. 1) solution at 8 mg/mL was poured on the culture dish and mixed with 100 μL of HUVEC-laden μ-IVFK (SEQ ID NO. 1) with HDFn cells in 2×PBS. The 3D hydrogel bead assay coculture was incubated at 37° C. for 10 min to guarantee β-IVFK (SEQ ID NO. 1) gelation. The final concentration of β-IVFK (SEQ ID NO. 1) was 4 mg/mL. Afterward, 2 mL of EGM-2 (EBM supplemented with singleQuots) was added to each dish containing the 3D hydrogel bead assay coculture, and the medium was changed every other day until fixation for immunofluorescence on culture day 8 and day 21.
The medium was removed from the 3D SUP hydrogel bead assay coculture samples and incubated with PBS at 37° C. for 15 min. Samples were fixed with 4% formaldehyde (v/v) in PBS for 30 min at 22° C. and washed with PBS for 15 min at 22° C. under rocking. Later, samples were detached from the bottom of the plate using a bent spatula and transferred to individual wells in a 24-well plate where they were permeabilized with 0.5 mL per well of (v/v) Triton® X-100 in PBS for 1 h at 22° C. under rocking. After, samples were blocked overnight at 4° C. in a wet chamber under rocking with 0.5 mL per well of 10% (v/v) goat serum in PBS containing 0.01% (v/v) Triton® X-100. From the next step and on, samples were protected from light all of the time. Samples were incubated for 36 h at 4° C. in a wet chamber under rocking with anti-CD31 Alexa® Fluor 647 and anti-Vimentin Alexa® Fluor 488, both diluted 1/100 in blocking buffer. Samples were washed with PBS for […] at 22° C. with shaking, replacing the PBS every hour. Then, cell nuclei were stained with 0.1 μg/mL DAPI in PBS for 5 min at 22° C. and washed three times with PBS for 5 min Finally, samples were transferred to 27 mm glass bottom dishes and imaged with a CLSM Zeiss® 710 or 880. Imaging of the entire sample was done by whole mount Z-stack tile scanning, and zoom-in images were Z-stack imaging with orthogonal views. Maximum intensity projections of the whole mount and zoom-in are presented.

[1] = system: endothelial cells (HUVECs); assay: Cell culture on microgels, HUVEC; assay type: cell-based, human; conditions: first 24 h of culture
Description: A 1.2×10^6 amount of cells suspended in 4 mL of complete cell culture media (300,000 cells/mL) was mixed with 200 μL of microgels by pipetting. The mix was seeded at […] in a 24-well low binding plate and kept at 37° C., 95% humidity, and 5% CO2 under rocker conditions at 30 rpm for 24 h. Then, cell-laden microgels were transferred into a tube by pipetting and spun down at 50 g for 5 min. The upper layer, containing cells not adherent to the microgels, was discarded. At this moment, cell-laden microgels were either resuspended with complete cell culture media to continue cell culture under rocker conditions or processed for staining.
The cell-laden microgels were fixed with 4% formaldehyde (v/v) in PBS and incubated for 30 min at 22° C. Later, formaldehyde was removed by centrifugation, and cell-laden microgels were washed twice with PBS in a similar way. Permeabilization buffer (6.3 mM MgCl2, 233.7 mM sucrose, 0.5% (v/v) Triton® X-100 in PBS) was kept at −20° C. and thawed just before use. […]
Proliferative cells were labeled by incubating cell-laden microgels with […] EdU in complete medium for 24 h in rocking culture at 30 rpm. […] EdU was detected following the manufacturer instructions by incubating cell-laden microgels with a Click-iT Plus reaction cocktail for 30 min at 22° C. protected from light. […]

Row | Substance | Endothelial network, comparison of bulky hydrogels (HUVECs; IVFK versus IVZK bulky hydrogel, 20 days of coculture) | Lumen (branched hollow structures), comparison of bulky hydrogels (HUVECs; IVFK versus IVZK bulky hydrogels) | Endothelial network formation in bulky hydrogel (HUVECs) | HUVEC cell adhesion and morphology on microgels [1] | Endothelial sprouting (HUVECs; soft bulk hydrogel 4 mg/mL, after 8 days in culture)
1 | Ac-Ile-Val-Phe-Lys-NH2 (Ac-IVFK-NH2) [self-assembling ultrashort tetrapeptide, forms hydrogels and microgels] | more extended and complex | more visible and also larger | developed an evident endothelial network | cell adhesion and stretched morphology | 
2 | Ac-Ile-Val-Cha-Lys-NH2 (IVXK; HELM PEPTIDE1{[ac].I.V.[Cha].K.[am]}$$$$V2.0; SMILES CC[C@H](C)[C@H](NC(C)=O)C(=O)N[C@H](C(=O)N[C@@H](CC1CCCCC1)C(=O)N[C@@H](CCCCN)C(N)=O)C(C)C) [IVZK, self-assembling ultrashort tetrapeptide, Z = cyclohexylalanine, forms hydrogels and microgels] |  |  | developed an evident endothelial network | cell adhesion and stretched morphology | show initial signs of sprouting
